# Measurements reported in patent publication US20250129067A1 (Progentos Therapeutics, Inc., priority 2021, published 2025).
# How the values were obtained:
# [1] = biological target: PDGFRα (Homo sapiens (Human), UniProt P16234); assay: PDGFRα kinase enzyme assay (Promega PDGFRα Kinase Enzyme System, ADP-Glo); type: biochemical; conditions: 11-point dose response, 10,000 nM to 0.169 nM; 150 uM ATP; BLQ = below limit of quantitation; read-out: IC50 Values on PDGFRα Kinase Inhibition, IC50
# In short: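 Read-out was ADP-Glo: remaining ATP depleted, ADP converted to luminescence and compared with a standard curve.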
# [2] = tested on: Oligodendrocyte progenitor cells (OPCs); assay: In vitro OPC differentiation assay, GPR17 expression (immunocytochemistry); conditions: 72 hours, fold change over vehicle; for GPR17 Fold Induction (Over Vehicle; 3 μM): 3 μM (10× concentration, final 0.3 μM)
# Sequence of PDGFRα (P16234 24-1089): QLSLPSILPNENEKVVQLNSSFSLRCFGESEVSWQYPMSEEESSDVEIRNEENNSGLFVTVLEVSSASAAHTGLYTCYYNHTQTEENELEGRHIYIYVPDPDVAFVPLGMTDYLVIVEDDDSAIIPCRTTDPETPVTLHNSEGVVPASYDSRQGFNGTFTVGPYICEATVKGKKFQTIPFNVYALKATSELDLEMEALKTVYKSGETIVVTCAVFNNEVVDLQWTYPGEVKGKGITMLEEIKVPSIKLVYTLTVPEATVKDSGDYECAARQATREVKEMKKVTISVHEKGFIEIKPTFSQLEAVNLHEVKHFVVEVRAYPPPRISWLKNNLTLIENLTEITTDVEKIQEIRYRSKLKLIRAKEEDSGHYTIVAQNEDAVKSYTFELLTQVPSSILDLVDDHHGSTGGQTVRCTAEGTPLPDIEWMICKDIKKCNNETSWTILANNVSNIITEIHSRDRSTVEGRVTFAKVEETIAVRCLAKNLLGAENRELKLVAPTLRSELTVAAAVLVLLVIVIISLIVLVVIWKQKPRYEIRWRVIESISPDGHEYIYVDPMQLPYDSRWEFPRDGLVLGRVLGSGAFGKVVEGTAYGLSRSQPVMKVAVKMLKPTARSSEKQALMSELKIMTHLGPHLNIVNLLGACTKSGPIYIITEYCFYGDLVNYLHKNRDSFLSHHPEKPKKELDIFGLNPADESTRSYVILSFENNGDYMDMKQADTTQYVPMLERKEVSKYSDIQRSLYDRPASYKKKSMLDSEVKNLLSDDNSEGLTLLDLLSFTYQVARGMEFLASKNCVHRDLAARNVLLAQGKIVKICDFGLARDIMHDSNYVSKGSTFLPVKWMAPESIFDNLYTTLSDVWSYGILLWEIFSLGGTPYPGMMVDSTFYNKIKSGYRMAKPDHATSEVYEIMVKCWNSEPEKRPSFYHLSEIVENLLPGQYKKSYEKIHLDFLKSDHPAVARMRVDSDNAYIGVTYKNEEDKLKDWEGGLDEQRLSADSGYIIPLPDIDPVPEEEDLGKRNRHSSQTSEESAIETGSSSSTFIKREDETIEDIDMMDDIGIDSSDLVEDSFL
Compound,IC50 [1] [µM],GPR17 Fold Induction (Over Vehicle; 3 μM) [2],"GPR17 Fold Induction (Over Vehicle; 5 μM) ([2]; 5 μM (10× concentration, final 0.5 μM))"
"Cn1cc(-c2ccc3c(N4CCN(c5ncc(Cc6ncco6)cn5)CC4)cnn3c2)cn1 [Compound 170, 2-((2-(4-(6-(1-methyl-1H-pyrazol-4-yl)pyrazolo[1,5-a]pyridin-3-yl)piperazin-1-yl)pyrimidin-5-yl)methyl)oxazole]",2.38,3.96,
"Cn1cc(-c2ccc3c(N4CCN(c5cnc(Cc6ccccc6)cn5)CC4)cnn3c2)cn1 [Compound 303, 3-(4-(5-benzylpyrazin-2-yl)piperazin-1-yl)-6-(1-methyl-1H-pyrazol-4-yl)pyrazolo[1,5-a]pyridine]",> 10,2.52,
"C[C@@H](OC(=O)N1CCN(c2cnn3cc(-c4cnn(C)c4)ccc23)CC1)c1ccncc1 [Compound 289, (R)-1-(pyridin-4-yl)ethyl 4-(6-(1-methyl-1H-pyrazol-4-yl)pyrazolo[1,5-a]pyridin-3-yl)piperazine-1-carboxylate]",0.43,7.44,
"CC(C)(C)OC(=O)N1CCN(c2cnn3cc(-c4cncn4CCCN4CCOCC4)ccc23)CC1 [Compound 232, tert-butyl 4-(6-(1-(3-morpholinopropyl)-1H-imidazol-5-yl)pyrazolo[1,5-a]pyridin-3-yl)piperazine-1-carboxylate]",> 10,1.03,
"COc1ccc2c(N3CCN(c4ncc(Cc5ccccc5)cn4)CC3)cnn2c1 [Compound 259, 3-[4-(5-benzylpyrimidin-2-yl)piperazin-1-yl]-6-methoxypyrazolo-[1,5-a]pyridine]",> 10,2.69,
"Cn1cc(-c2ccc3c(C4CCC(CCc5ccccc5)CC4)cnn3c2)cn1 (centres unmarked) [Compound 141, 6-(1-methyl-1H-pyrazol-4-yl)-3-(4-phenethylcyclohexyl)pyrazolo[1,5-a]pyridine]",> 10,1.09,
"Cn1cc(-c2ccc3c(N4CCN(c5nsc(Cc6ccccc6)n5)CC4)cnn3c2)cn1 [Compound 154, 5-benzyl-3-(4-(6-(1-methyl-1H-pyrazol-4-yl)pyrazolo[1,5-a]pyridin-3-yl)piperazin-1-yl)-1,2,4-thiadiazole]",0.697,13.45,
"Cn1cc(-c2ccc3c(N4CCN(c5ncc(C(=O)C(F)(F)F)cn5)CC4)cnn3c2)cn1 [Compound 284, 2,2,2-trifluoro-1-(2-(4-(6-(1-methyl-1H-pyrazol-4-yl)pyrazolo[1,5-a]pyridin-3-yl)piperazin-1-yl)pyrimidin-5-yl)ethan-1-one]",> 10,6.21,
"Cn1cc(-c2ccc3c(N4CCCN(C(=O)OC(C)(C)C)CC4)cnn3c2)cn1 [Compound 40, tert-butyl 4-(6-(1-methyl-1H-pyrazol-4-yl)pyrazolo[1,5-a]pyridin-3-yl)-1,4-diazepane-1-carboxylate]",2.42,1.27,
"Cn1cc(-c2ccc3c(NCCCNc4ncc(Cc5ccccc5)cn4)cnn3c2)cn1 [Compound 124, N^1-(5-benzylpyrimidin-2-yl)-N^3-(6-(1-methyl-1H-pyrazol-4-yl)pyrazolo[1,5-a]pyridin-3-yl)propane-1,3-diamine]",> 10,1.47,
"Cc1nn(C)cc1-c1ccc2c(N3CCN(C(=O)OC(C)(C)C)CC3)cnn2c1 [Compound 220, tert-butyl 4-(6-(1,3-dimethyl-1H-pyrazol-4-yl)pyrazolo[1,5-a]pyridin-3-yl)piperazine-1-carboxylate]",0.528,5.20,
"Cn1cc(-c2ccc3c(C4=CCC(C(=O)OCc5ccccc5)CC4)cnn3c2)cn1 (centres unmarked) [Compound 132, benzyl 4-(6-(1-methyl-1H-pyrazol-4-yl)pyrazolo[1,5-a]pyridin-3-yl)cyclohex-3-ene-1-carboxylate]",0.744,5.85,
"Cn1cc(-c2ccn3c(N4CCC(C(=O)OC(C)(C)C)C4)cnc3n2)cn1 (centres unmarked) [Compound 110, tert-butyl 1-(7-(1-methyl-1H-pyrazol-4-yl)imidazo[1,2-a]pyrimidin-3-yl)pyrrolidine-3-carboxylate]",> 10,0.85,
"Cn1cc(-c2cn3ncc(N4CCN(c5ncc(Cc6ccccc6)cn5)CC4)c3cn2)cn1 [Compound 22, 3-[4-(5-Benzylpyrimidin-2-yl)piperazin-1-yl]-6-(1-methyl-1H-pyrazol-4-yl)pyrazolo[1,5-a]pyrazine]",> 10,6.13,3.46
"Cc1cnc(COC(=O)N2CCN(c3cnn4cc(-c5cnn(C)c5)ccc34)CC2)o1 [Compound 199, (5-methyloxazol-2-yl)methyl 4-(6-(1-methyl-1H-pyrazol-4-yl)pyrazolo[1,5-a]pyridin-3-yl)piperazine-1-carboxylate]",1.24,4.08,
"COCCn1cc(-c2cc3ncc(N(C)CCN(C)C(=O)OC(C)(C)C)n3cn2)cn1 [Compound 97, tert-butyl (2-((7-(1-(2-methoxyethyl)-1H-pyrazol-4-yl)imidazo[1,2-c]pyrimidin-3-yl)(methyl)amino)ethyl)(methyl)carbamate]",> 10,1.25,
"Cn1cc(-c2ccc3c(N4CCN(c5ncc([C@@H](O)[C@@H]6CCCOC6)cn5)CC4)cnn3c2)cn1 [Compound 193, (S)-(2-(4-(6-(1-methyl-1H-pyrazol-4-yl)pyrazolo[1,5-a]pyridin-3-yl)piperazin-1-yl)pyrimidin-5-yl)((R)-tetrahydro-2H-pyran-3-yl)methanol]",0.0691,11.72,
"Cn1cc(-c2cc3ncc(N4CCN(c5ncc(Cc6ccccc6)cn5)CC4)n3cn2)cn1 [Compound 113, 3-(4-(5-benzylpyrimidin-2-yl)piperazin-1-yl)-7-(1-methyl-1H-pyrazol-4-yl)imidazo[1,2-c]pyrimidine]",> 10,0.57,
"Cn1cc(-c2ccc3c(N4CCN(c5ncc(CCC(O)c6ccccc6)cn5)CC4)cnn3c2)cn1 (centres unmarked) [Compound 165, 3-(2-(4-(6-(1-methyl-1H-pyrazol-4-yl)pyrazolo[1,5-a]pyridin-3-yl)piperazin-1-yl)pyrimidin-5-yl)-1-phenylpropan-1-ol]",0.686,18.42,
"Cn1cc(-c2ccc3c(N4CCN(C(=O)OC(C)(C)C)CC4=O)cnn3c2)cn1 [Compound 28, tert-butyl 4-[6-(1-methyl-1H-pyrazol-4-yl)pyrazolo[1,5-a]pyridine-3-yl]-3-oxopiperazine-1-carboxylate]",> 10,1.84,
